US20260216344A1, “ALC1 Inhibitors and Synergy with PARPi” (Eisbach Bio GmbH, priority 2020, published 2026)
Entries after “also recorded” stand apart in the source; their conditions may differ.

System: PARP2
Experiment: live-cell PARP-2 trapping assay (GFP-PARP2 at laser micro-irradiation sites)
Assay type: cell-based, human
Details: U2OS cells transfected with GFP-PARP2; veliparib 10 μM, talazoparib 100 nM; images 1 and 15 minutes after irradiation
Method: U2OS cells were seeded onto 4-well Nunc Lab-Tek chambers (Thermo Fisher Scientific) in normal DMEM. Cells were cultured over night at 37° C. and transfected with a GFP-tagged PARP2 plasmid using Lipofectamine. 24 h after transfection, the cells were imaged using the Zeiss AxioObserver Z1 confocal spinning-disk microscope equipped with a sCMOS ORCA Flash 4.0 camera (Hamamatsu). Live-cell imaging experiments were performed with C-Apo 63× water immersion objective lens. During this time, the cells were maintained in Leibovitz's L-15 media (Gibco), supplemented with 10% FBS, at 37° C. in the absence of CO2. […] DNA damage was induced along a line of 88 pixels that is exposed for 400 msec with 20% laser power of a 355 nm laser operated through a single-point scanning head (UGA-42 firefly, Rapp OptoElectronics).
The accumulation of fluorophore-tagged proteins at laser micro-irradiation sites was followed for 15-30 minutes. […] The accumulation of fluorophore-tagged proteins at micro-irradiation sites was quantified using a custom-made macro in Fiji/ImageJ. The damage region of interest was selected, the mean fluorescent intensity of the nucleus was determined, and the background signal was subtracted. The recruitment was calculated via the following formula: (damage region (t)−background signal (t))/(nucleus intensity (t)−background (t))

Structure (SMILES) | recruitment / retention of GFP-PARP2 at laser micro-irradiation damage sites
C[C@]1(c2nc3c(C(N)=O)cccc3[nH]2)CCCN1 [veliparib] | overall less PARP2 recruitment to the DNA lesions; also recorded: less recruitment of PARP2 to the damage site
Cn1ncnc1[C@H]1c2n[nH]c(=O)c3cc(F)cc(c23)N[C@@H]1c1ccc(F)cc1 [talazoparib] | enhanced retention of GFP-tagged PARP2 at induced DNA lesions; also recorded: enhanced retention of PARP2 at induced damage sites
